Measurements: patent publication US20260373119A1, “NOVEL COMPOUND, AND COMPOSITION FOR PREVENTING OR TREATING HER2-POSITIVE CANCER, COMPRISING SAME” (EWHA UNIVERSITY - INDUSTRY COLLABORATION FOUNDATION, priority 2022, published 2026)

Columns and labels:
[1] = molecular target: HER family kinases (EGFR, ErbB2, and ErbB4) or kinases associated with the AKT/MAPK pathway (PI3 kinase and c-RAF); assay: kinase profiling, summary over the panel; format: biochemical; details: 10 μM and 25 μM
Procedure: (§1) Kinase inhibitory activity of the candidate compound at 10 μM and 25 μM was assessed using Eurofins Kinase Profiling Services. Inhibitory effects on c-RAF, EGFR, ErbB2, ErbB4, and PI3 kinase were analyzed according to the Kinase Profiler Service Assay protocol.

TZMB-resistant cells = assay: treatment of TZMB-resistant cells; format: cell-based; details: BT474 TR, NCI-N87 TR, JIMT-1
Procedure: (§2) The ability of the candidate compound to overcome trastuzumab resistance was evaluated.

MED23^D400A/H449G = molecular target: T1, MED23^D400A/H449G (Homo sapiens, UniProt Q9ULK4, D400A/H449G); assay: LC-MS/MS protein-small molecule interaction, double mutant; format: binding; details: FLAG pulldown
T1 construct: FLAG pulldown, LC-MS/MS
T1 sequence (Q9ULK4 whole entry D400A/H449G): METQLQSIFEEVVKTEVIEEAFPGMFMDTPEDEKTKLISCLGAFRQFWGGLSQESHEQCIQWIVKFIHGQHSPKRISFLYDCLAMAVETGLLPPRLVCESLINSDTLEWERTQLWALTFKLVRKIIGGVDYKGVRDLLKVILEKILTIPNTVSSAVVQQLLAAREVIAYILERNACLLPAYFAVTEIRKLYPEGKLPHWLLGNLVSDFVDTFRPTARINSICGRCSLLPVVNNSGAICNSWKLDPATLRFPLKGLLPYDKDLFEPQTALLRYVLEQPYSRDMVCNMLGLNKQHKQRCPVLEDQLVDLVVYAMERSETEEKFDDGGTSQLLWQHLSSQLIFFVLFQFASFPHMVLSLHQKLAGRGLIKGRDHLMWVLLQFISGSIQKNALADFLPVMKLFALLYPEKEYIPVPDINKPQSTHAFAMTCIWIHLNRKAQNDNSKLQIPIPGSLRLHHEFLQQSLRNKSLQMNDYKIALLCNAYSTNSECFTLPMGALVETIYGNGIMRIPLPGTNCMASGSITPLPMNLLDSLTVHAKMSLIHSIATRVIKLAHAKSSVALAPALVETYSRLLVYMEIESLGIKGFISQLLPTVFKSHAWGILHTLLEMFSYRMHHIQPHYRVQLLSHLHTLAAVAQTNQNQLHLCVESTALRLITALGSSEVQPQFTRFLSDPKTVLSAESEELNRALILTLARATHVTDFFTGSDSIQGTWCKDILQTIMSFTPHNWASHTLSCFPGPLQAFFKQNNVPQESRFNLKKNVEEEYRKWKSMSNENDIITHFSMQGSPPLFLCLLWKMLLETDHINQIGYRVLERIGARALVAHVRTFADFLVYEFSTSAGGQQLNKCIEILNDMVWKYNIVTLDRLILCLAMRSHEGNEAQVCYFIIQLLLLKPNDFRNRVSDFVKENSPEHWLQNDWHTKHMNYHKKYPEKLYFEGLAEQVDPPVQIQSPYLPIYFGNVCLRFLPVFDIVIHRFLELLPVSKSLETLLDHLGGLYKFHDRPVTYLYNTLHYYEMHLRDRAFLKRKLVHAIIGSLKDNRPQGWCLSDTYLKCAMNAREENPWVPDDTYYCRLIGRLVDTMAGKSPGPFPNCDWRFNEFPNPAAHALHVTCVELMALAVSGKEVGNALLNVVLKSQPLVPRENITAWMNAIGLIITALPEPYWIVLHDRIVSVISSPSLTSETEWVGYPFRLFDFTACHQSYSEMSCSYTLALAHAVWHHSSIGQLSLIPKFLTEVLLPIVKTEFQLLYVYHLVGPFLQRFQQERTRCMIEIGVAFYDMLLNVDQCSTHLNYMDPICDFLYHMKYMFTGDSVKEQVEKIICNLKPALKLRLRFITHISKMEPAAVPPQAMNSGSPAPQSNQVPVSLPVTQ
Procedure: HEK293 cells were seeded in a […] and incubated until they reached 70-80% confluency. The cells were transfected with p3Xflag-myc-CMV26-MED23^WT and p3Xflag-myc-CMV26-MED23^D400A/H449G plasmids for 24 hours, followed by lysis to obtain protein extracts. To isolate the candidate compound (YK1) bound to MED23, total lysates were incubated with YK1 for 4 hours and subsequently subjected to pulldown using FLAG-agarose beads (Sigma Aldrich, USA). The precipitated beads were washed at least three times to completely remove unbound compounds. To separate the candidate compound from the precipitated MED23, 50 μL of the sample was extracted with 1 mL of acetonitrile and centrifuged at 13,000 rpm at 4 °C for 10 minutes. The supernatant (1,000 μL) from each sample was transferred to a new tube and dried under nitrogen gas at 37 °C. For YK1 analysis, the residue was dissolved in 50 μL of ACN and vortexed for 10 minutes. […] The mixture was then extracted with 450 μL of ACN by ultrasonic treatment and vortex mixing. The candidate compound bound to MED23 was finally analyzed using an Agilent 6460 triple quadrupole mass spectrometer (Agilent Technologies, USA).

c-RAF = c-RAF (Homo sapiens, UniProt P04049); assay: kinase profiling, c-RAF; format: biochemical; details: read-out: In vitro kinase inhibitory activity (%)
c-RAF, sequence (P04049 whole entry): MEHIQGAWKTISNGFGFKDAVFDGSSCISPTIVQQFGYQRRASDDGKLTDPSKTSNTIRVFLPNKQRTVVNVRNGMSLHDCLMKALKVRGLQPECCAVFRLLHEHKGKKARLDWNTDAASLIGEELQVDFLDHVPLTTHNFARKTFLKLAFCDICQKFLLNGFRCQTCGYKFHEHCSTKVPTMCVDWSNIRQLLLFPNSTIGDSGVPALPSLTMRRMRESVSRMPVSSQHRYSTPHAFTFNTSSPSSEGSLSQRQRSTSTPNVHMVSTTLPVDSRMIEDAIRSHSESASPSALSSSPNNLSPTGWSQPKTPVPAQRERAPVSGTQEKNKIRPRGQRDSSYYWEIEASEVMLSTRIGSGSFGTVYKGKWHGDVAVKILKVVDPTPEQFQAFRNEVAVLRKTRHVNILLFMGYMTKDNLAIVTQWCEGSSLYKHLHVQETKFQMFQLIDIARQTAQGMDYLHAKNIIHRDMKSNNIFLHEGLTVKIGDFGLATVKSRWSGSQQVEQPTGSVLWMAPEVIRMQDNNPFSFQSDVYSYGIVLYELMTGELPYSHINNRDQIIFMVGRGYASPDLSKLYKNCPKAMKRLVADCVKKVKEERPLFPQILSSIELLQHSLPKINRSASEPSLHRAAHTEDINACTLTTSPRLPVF
Procedure: as §1

ErbB4 = ErbB4 (Homo sapiens, UniProt Q15303); assay: kinase profiling, ErbB4; format: biochemical; details: read-out: In vitro kinase inhibitory activity (%)
ErbB4, sequence (Q15303 26-1308): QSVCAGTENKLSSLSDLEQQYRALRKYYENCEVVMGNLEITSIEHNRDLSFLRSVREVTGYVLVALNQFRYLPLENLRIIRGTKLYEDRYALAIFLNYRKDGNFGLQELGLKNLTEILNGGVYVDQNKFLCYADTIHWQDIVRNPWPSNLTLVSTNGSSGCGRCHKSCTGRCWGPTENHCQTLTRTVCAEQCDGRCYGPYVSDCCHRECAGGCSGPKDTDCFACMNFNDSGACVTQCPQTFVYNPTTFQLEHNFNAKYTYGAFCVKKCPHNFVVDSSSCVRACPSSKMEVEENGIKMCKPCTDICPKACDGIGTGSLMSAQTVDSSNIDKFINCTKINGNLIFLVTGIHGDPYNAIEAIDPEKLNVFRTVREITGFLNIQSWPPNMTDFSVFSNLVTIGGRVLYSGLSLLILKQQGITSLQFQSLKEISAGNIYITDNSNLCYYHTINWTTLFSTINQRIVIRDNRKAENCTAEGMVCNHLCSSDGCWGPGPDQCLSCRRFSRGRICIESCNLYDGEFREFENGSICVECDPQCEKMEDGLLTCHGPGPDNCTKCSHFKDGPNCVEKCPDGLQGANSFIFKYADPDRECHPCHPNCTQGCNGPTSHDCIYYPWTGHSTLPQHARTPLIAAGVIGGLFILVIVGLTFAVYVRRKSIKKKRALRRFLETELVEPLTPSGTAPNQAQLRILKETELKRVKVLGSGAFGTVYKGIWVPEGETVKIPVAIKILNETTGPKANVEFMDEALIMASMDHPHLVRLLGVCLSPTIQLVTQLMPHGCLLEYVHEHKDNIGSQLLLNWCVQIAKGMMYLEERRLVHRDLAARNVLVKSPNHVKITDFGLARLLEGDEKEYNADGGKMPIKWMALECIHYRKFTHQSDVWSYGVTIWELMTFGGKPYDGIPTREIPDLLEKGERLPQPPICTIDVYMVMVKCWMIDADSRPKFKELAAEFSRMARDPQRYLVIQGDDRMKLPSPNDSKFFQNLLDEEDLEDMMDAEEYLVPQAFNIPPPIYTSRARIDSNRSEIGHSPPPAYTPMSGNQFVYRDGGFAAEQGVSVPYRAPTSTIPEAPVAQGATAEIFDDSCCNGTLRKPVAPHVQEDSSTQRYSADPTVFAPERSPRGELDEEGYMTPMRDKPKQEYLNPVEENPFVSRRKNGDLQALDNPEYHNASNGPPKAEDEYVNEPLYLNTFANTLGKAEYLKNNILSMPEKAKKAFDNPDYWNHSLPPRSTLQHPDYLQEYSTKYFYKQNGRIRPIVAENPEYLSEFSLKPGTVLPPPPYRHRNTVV
Procedure: as §1

[2] = tested on: HeLa (HER2-negative cervical cancer cell line); assay: antiproliferative effect, HeLa; format: cell-based; details: Homo sapiens, 72 hours
HER2 gene = HER2 gene (mRNA) expression; format: cell-based; details: dose-dependent
Procedure: To further confirm the effects of the candidate compound, […] quantitative analysis was performed. Specifically, RNA was extracted from cells using the FavorPrep Tri-RNA reagent (FAVORGEN Biotech Corp., Taiwan) and reverse-transcribed into complementary DNA (cDNA) using the PrimeScript RT Reagent Kit (Takara Bio Inc., Japan) following the manufacturer's instructions. Quantitative gene analysis was conducted using the SensiFAST SYBR No-ROX kit (Bioline, Canada). PCR was performed using the CFX96™ real-time PCR detection system (Bio-Rad, USA) under the following protocol: 95 °C for 2 minutes, and 27 cycles at 95 °C for 10 seconds, 56 °C for 10 seconds, and 72 °C for 20 seconds. The relative amount of mRNA was determined using the ΔΔCt method, and normalized against GAPDH or ACTIN. […]

[3] = tested on: HCT15 (HER2-positive colorectal cancer cell line); assay: antiproliferative effect, HCT15; format: cell-based; details: Homo sapiens, HCT-15, 72 hours
TZMB-sensitive cells = assay: treatment of TZMB-sensitive cells; format: cell-based; details: parent BT474 and NCI-N87
Procedure: as §2

HER2 = assay: JIMT-1 xenograft, HER2 levels; format: in vivo, mice; details: 4 mg/kg
Procedure: Xenograft mice were generated to evaluate the anticancer effects of the candidate compound. NCI-N87 and JIMT-1 cells (5×10^6 cells), dissolved in 100 μL of 1× phosphate-buffered saline (PBS), were subcutaneously injected into the right flanks of 5-week-old female athymic nude mice (Envigo, USA) or 4-week-old female NOD-SCID mice (Koatech, South Korea). When the tumors reached a volume of 90-100 mm^3, the mice were randomized into designated groups. For the NCI-N87 xenograft, intravenous administration was performed six times at 3-day intervals. For the JIMT-1 xenograft, intraperitoneal administration was performed eight times at 3-day intervals. […] Tumor size changes were monitored until the mean tumor size in the control group reached 2,000-2,500 mm^3. On day 28 for the NCI-N87 xenograft and day 46 for the JIMT-1 xenograft, the mice were sacrificed, and tumors were excised to determine relative tumor sizes. Tumor length (L) and width (W) were measured with calipers, and tumor volume was calculated using the formula: […]
For immunohistochemistry (IHC) analysis, tumors from the xenograft models were prepared as paraffin-embedded sections. […] The control group was counterstained with hematoxylin, and the IHC staining was evaluated under an optical microscope at 200× magnification.

PI3 Kinase (p110a/p85a) = PI3 Kinase (p110a/p85a) (Homo sapiens, UniProt P42336); assay: kinase profiling, PI3 kinase; format: biochemical; details: read-out: In vitro kinase inhibitory activity (%)
PI3 Kinase (p110a/p85a), sequence (P42336 whole entry): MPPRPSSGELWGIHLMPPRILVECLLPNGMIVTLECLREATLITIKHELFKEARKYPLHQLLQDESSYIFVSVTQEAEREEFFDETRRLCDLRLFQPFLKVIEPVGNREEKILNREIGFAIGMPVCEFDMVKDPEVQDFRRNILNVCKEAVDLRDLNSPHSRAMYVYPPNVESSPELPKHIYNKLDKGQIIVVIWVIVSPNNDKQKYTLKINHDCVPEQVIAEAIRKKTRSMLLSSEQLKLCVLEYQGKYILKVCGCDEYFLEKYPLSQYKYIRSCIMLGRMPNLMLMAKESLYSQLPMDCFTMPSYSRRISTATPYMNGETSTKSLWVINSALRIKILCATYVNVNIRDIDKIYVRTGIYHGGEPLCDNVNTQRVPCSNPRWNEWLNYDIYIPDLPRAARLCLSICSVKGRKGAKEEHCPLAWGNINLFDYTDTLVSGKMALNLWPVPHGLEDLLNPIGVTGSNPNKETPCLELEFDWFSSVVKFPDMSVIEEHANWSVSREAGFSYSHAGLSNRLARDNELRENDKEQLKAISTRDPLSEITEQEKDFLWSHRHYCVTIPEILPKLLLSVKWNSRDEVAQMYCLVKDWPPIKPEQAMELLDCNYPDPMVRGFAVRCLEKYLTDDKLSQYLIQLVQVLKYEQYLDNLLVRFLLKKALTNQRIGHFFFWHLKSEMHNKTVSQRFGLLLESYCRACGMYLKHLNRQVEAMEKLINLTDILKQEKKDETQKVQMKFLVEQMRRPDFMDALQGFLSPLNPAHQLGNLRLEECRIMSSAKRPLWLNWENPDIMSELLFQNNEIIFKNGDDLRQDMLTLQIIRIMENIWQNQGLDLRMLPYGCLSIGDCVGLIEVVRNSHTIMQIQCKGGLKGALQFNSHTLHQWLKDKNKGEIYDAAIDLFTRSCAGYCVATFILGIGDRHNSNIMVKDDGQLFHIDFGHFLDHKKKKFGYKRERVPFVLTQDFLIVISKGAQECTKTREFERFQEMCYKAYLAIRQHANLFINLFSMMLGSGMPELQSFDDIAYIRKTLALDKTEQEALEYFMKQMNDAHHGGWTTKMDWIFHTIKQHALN
PI3 Kinase (p110a/p85a), sequence (P27986 whole entry partner): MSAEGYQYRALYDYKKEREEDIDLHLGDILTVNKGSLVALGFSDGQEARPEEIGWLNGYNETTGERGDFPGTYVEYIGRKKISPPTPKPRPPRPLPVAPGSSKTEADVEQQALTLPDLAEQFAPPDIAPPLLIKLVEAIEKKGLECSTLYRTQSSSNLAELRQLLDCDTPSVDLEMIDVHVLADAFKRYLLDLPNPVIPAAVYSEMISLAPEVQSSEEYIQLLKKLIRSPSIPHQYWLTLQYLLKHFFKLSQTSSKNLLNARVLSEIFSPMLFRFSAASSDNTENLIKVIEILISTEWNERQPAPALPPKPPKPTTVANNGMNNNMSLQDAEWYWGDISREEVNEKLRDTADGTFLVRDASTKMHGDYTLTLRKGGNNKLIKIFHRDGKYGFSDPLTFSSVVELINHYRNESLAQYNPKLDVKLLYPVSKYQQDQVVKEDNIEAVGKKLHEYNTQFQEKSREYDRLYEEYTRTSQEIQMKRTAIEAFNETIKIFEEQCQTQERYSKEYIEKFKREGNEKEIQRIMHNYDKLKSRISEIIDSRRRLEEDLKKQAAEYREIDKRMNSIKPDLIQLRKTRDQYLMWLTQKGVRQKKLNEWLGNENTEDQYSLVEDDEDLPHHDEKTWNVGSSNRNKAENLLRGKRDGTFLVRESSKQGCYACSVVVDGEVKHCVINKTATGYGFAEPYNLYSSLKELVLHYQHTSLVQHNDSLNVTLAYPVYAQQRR
Procedure: as §1

kinase inhibitory activity in words [1]: no significant inhibitory activity | inhibition at 10 µM (c-RAF; 10 μM): 3% | inhibition at 25 µM (c-RAF; 25 μM): 10% | inhibition at 10 µM (ErbB4; ErbB4, 10 μM): 0% | inhibition at 25 µM (ErbB4; ErbB4, 25 μM): 0% | IC50 [2]: 16.92 ± 0.1 µM | IC50 [3]: 7.66 ± 0.04 µM | inhibition at 10 µM (PI3 Kinase (p110a/p85a); 10 μM): 3% | inhibition at 25 µM (PI3 Kinase (p110a/p85a); 25 μM): 17%
Structure (SMILES): CC(=O)N1N=C(c2cccc(O)c2)CC1c1ccc(Cl)cc1 (centres unmarked) [Compound 15, 1-[5-(4-Chlorophenyl)-3-(3-hydroxyphenyl)-4,5-dihydropyrazol-1-yl]-ethanone]
anticancer effect in TZMB-resistant cells (TZMB-resistant cells): significant anticancer effects not only in TZMB-sensitive cells but also in TZMB-resistant cells | binding to double mutant MED23 (MED23^D400A/H449G): unable to bind to the double mutant MED23^D400A/H449G | HER2 gene expression level (HER2 gene): significantly downregulate HER2 gene and protein expression levels in a dose-dependent manner | anticancer effect in TZMB-sensitive cells (TZMB-sensitive cells): significant anticancer effects not only in TZMB-sensitive cells but also in TZMB-resistant cells | HER2 levels (HER2): significant reduction in HER2 levels
